What all share (test): growth of human tumour cells (NCI), 48 h
Experiment [1] has as its system HCT-15.
Experiment [2] deals with IGROV-1.
In experiment [3] the test system is LOX IMVI.
For experiment [4], the system named is M14.
For experiment [5], the system named is MOLT-4.
Experiment [6] relates to OVCAR-5.
In experiment [7] the test system is RPMI-8226.
Experiment [8] deals with SF-295.
Experiment [9] concerns SK-OV-3.
Experiment [10] deals with SN12C.
Experiment [11] relates to SR.
Experiment [12] has as its system TK-10.
Experiment [13] concerns UACC-257.
For experiment [14], the system named is A498.
In experiment [15] the test system is OVCAR-3.
For experiment [16], the system named is SK-MEL-28.

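Five concentrations, 48 hours, 96-well plates. GI50 is the concentration that inhibits growth by half.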 Active and inactive are the calls of the source. Cut-off read from the data, not from the text of the source: active = GI50 up to about 1.1 µM and inactive = higher.

On to `C=C(Br)C(C)(Cl)CCC(Br)C(C)(C)Br` (stereo not given), for which the GI50 in [1] is 67 µM; in experiment [2] it was > 100 µM (inactive); in experiment [3], 16.6 µM (inactive); in [4], 50.4 µM (inactive); in [5] it was 31 µM (inactive); in experiment [6], 37.2 µM (inactive). The GI50 in [7] is 25.9 µM (inactive); in experiment [8] it was 47.2 µM (inactive); in [9] it was > 100 µM (inactive); in experiment [10], > 100 µM (inactive); in experiment [11], 22.1 µM (inactive); in experiment [12], > 100 µM (inactive). Also, in experiment [13], the GI50 is 78.7 µM (inactive).
For the molecule `CC(=O)O/N=C/c1ncccc1CO`, the GI50 in experiment [14] is > 100 µM (inactive); in experiment [1], over 100 µM; in [2], > 100 µM (inactive); in experiment [3], > 100 µM (inactive); in [4] it was > 100 µM (inactive); in experiment [5], > 100 µM (inactive). The GI50 in [15], in [6], in experiment [8], in [16], in experiment [9] and in [10] was > 100 µM (inactive) each time. Moreover, the GI50 in experiment [11], in [12] and in experiment [13] was > 100 µM (inactive) each time.
In the case of `CCOC(=N)/C(=C1\OC(=N)C(c2ccc(Cl)cc2)=C1O)c1ccc(Cl)cc1`, the GI50 in experiment [14] is 17.8 µM (inactive); in experiment [2], 28.9 µM (inactive); in experiment [3] it was 13.9 µM (inactive); in [4] it was 17.4 µM (inactive); in experiment [5] it was 17.9 µM (inactive); in experiment [15], 18 µM (inactive). Moreover, the GI50 in [6] was 19.4 µM (inactive); in experiment [7] it was 14.8 µM (inactive); in experiment [8], 25.3 µM (inactive); in [16] it was 16 µM (inactive); in experiment [9], 36.5 µM (inactive); in experiment [10], 14.8 µM (inactive). Moreover, the results for the GI50 in experiment [11], in [12] and in experiment [13] were 16.7 µM (inactive), 28.1 µM (inactive) and 17.2 µM (inactive), respectively.
With `O=C(N/C(=C\c1ccc(/C=C(\NC(=O)c2ccccc2)c2nc3c(O)nc(S)nc3[nH]2)cc1)c1nc2c(O)nc(S)nc2[nH]1)c1ccccc1`, the GI50 in [14] is 40.6 µM (inactive); in experiment [1], over 100 µM; in experiment [2] it was > 100 µM (inactive); in [3] it was 38 µM (inactive); in [4], > 100 µM (inactive); in experiment [5], 43 µM (inactive). Besides, the GI50 in experiment [15] was > 100 µM (inactive); in experiment [6], > 100 µM (inactive); in [7] it was 29.4 µM (inactive); in [8] it was > 100 µM (inactive); in experiment [16], 29.3 µM (inactive); in experiment [9], > 100 µM (inactive). In addition, the GI50 in [10], in experiment [12] and in experiment [13] was > 100 µM (inactive) in each case.
As for `O=C(Nc1c(O)[nH]c(=S)[nH]c1=O)c1ccco1`, the GI50 in [14] is > 100 µM (inactive); in experiment [1], over 100 µM; in experiment [2] it was > 100 µM (inactive); in experiment [3], > 100 µM (inactive); in [4], > 100 µM (inactive); in experiment [5], > 100 µM (inactive). The GI50 in [15], in [6], in [7], in experiment [8], in [16] and in experiment [9] was > 100 µM (inactive) in each case. Besides, the GI50 in [10], in experiment [11], in [12] and in [13] was > 100 µM (inactive) throughout.
Take `COc1cc(C(C)O)c[n+](CCC2CNc3ccccc32)c1` (stereo not given): the GI50 is > 100 µM (inactive) in experiment [14]; over 100 µM in [1]; > 100 µM (inactive) in experiment [2]; > 100 µM (inactive) in experiment [3]; > 100 µM (inactive) in [4]; > 100 µM (inactive) in experiment [5]. The GI50 in experiment [15] is 26.1 µM (inactive); in experiment [7], > 100 µM (inactive); in experiment [8] it was > 100 µM (inactive); in [10], > 100 µM (inactive); in [11], > 100 µM (inactive); in experiment [13], > 100 µM (inactive).
In the case of `Cc1ccc(NC(=O)CCc2nc(N)nc(N)c2-c2ccccc2)cc1C`, the GI50 in [14] is > 100 µM (inactive); in [1], over 100 µM; in [2], > 100 µM (inactive); in experiment [4] it was > 100 µM (inactive); in experiment [5], > 100 µM (inactive); in [15] it was > 100 µM (inactive). Further, the GI50 in experiment [6], in [7], in experiment [8], in experiment [16], in experiment [9] and in experiment [10] was > 100 µM (inactive) throughout. Besides, the GI50 in experiment [11], in experiment [12] and in experiment [13] was > 100 µM (inactive) throughout.
As for `COc1cc2nc(NCCCCCNC(=O)c3ccco3)nc(N)c2cc1OC`, the GI50 in experiment [14] was 80.2 µM (inactive); in [1], over 100 µM; in experiment [2], 41.1 µM (inactive); in experiment [4], 18.5 µM (inactive); in [5] it was 24.8 µM (inactive); in [15] it was 24.7 µM (inactive). Moreover, the GI50 in experiment [6] was 38.3 µM (inactive); in experiment [7], 38 µM (inactive); in experiment [8] it was 37.2 µM (inactive); in experiment [16], 19.2 µM (inactive); in experiment [9] it was 32.4 µM (inactive); in experiment [10], 39.8 µM (inactive). Further, the figures for the GI50 in experiment [12] and in experiment [13] were 53.1 µM (inactive) and 19.5 µM (inactive), respectively.
In the case of `O=C(C[n+]1ccccc1)N/N=C(/CCC(=O)N(Cc1ccccc1)Cc1ccccc1)CC(=O)c1ccccc1`, the GI50 was > 100 µM (inactive) in experiment [14]; over 100 µM in [1]; > 100 µM (inactive) in [2]; > 100 µM (inactive) in experiment [3]; > 100 µM (inactive) in experiment [4]; > 100 µM (inactive) in experiment [5]. Besides, the GI50 in [15], in experiment [6], in experiment [7], in experiment [8], in [16] and in experiment [10] was > 100 µM (inactive) throughout. Also, the GI50 in experiment [11], in [12] and in experiment [13] was > 100 µM (inactive) throughout.
Regarding `O=[N+]([O-])c1ccccc1/C=N/C12CC3CC(CC(C3)C1)C2`, the GI50 in experiment [14] is > 100 µM (inactive); in experiment [1] it was 42.1 µM; in experiment [2], > 100 µM (inactive); in experiment [3], 47.4 µM (inactive); in experiment [4] it was 56.1 µM (inactive); in experiment [5], 34 µM (inactive). Further, the GI50 in experiment [15] was 32.3 µM (inactive); in experiment [6] it was > 100 µM (inactive); in experiment [7], 34 µM (inactive); in [8], > 100 µM (inactive); in experiment [16], > 100 µM (inactive); in experiment [9], > 100 µM (inactive). Besides, the GI50 in [10], in experiment [12] and in [13] was > 100 µM (inactive) throughout.
Consider `CN(C)C(=O)c1ccc([N+](=O)[O-])cc1`, for which the GI50 in [14] is > 100 µM (inactive); in experiment [1] it was over 100 µM; in experiment [2], > 100 µM (inactive); in experiment [3], > 100 µM (inactive); in experiment [4], > 100 µM (inactive); in experiment [5], > 100 µM (inactive). Further, the GI50 in experiment [15], in [6], in experiment [8], in [16], in experiment [9] and in experiment [10] was > 100 µM (inactive) throughout. In addition, the GI50 in [11], in experiment [12] and in [13] was > 100 µM (inactive) each time.
For `CC1(C)OC2CC3COC(=O)C3CC2O1` (stereo not given), the GI50 is > 100 µM (inactive) in experiment [14]; over 100 µM in experiment [1]; > 100 µM (inactive) in [2]; > 100 µM (inactive) in experiment [3]; > 100 µM (inactive) in experiment [4]; > 100 µM (inactive) in experiment [5]. Further, the GI50 in experiment [15], in [6], in experiment [7], in [8], in [16] and in experiment [9] was > 100 µM (inactive) each time. Further, the GI50 in experiment [10], in [11], in [12] and in experiment [13] was > 100 µM (inactive) each time.
As to `Nc1ncnc2c1ncn2[C@]1(CO)C=C(CO)C(O)C1O` (stereo not given in full), the GI50 in [14] is > 100 µM (inactive); in experiment [1], over 100 µM; in experiment [3], > 100 µM (inactive); in experiment [4], > 100 µM (inactive); in experiment [5], > 100 µM (inactive); in experiment [6] it was 80.4 µM (inactive). In addition, the GI50 in [7], in experiment [8], in experiment [16], in experiment [9], in experiment [10] and in experiment [11] was > 100 µM (inactive) throughout. The GI50 in experiment [12] and in experiment [13] was > 100 µM (inactive) in each case.
As to `Cc1cc(O)cc2oc(=O)c3c(O)cc(O)cc3c12` [ALTERNARIOL], the GI50 in experiment [14] was 40.1 µM (inactive); in experiment [1], 18.2 µM; in experiment [2] it was 19.7 µM (inactive); in experiment [3], 16.1 µM (inactive); in [4], 60 µM (inactive); in experiment [5], 7.59 µM (inactive). Also, the GI50 in experiment [15] was 23 µM (inactive); in experiment [6] it was 69.2 µM (inactive); in [8], 26.3 µM (inactive); in experiment [16], > 100 µM (inactive); in experiment [9], 18.5 µM (inactive); in [10], 50.5 µM (inactive). Besides, the GI50 in experiment [11] is 3.69 µM (inactive); in experiment [12] it was 44.5 µM (inactive); in [13], > 100 µM (inactive).

The values above are taken from ChEMBL document CHEMBL1201862, “PubChem BioAssay data set” (2004).
